# Measured values: ChEMBL document CHEMBL3045195, “Comparison of the activity of non-steroidal ecdysone agonists between dipteran and lepidopteran insects, using cell-based EcR reporter assays” (Pest Manag Sci, 2010)
# Activity calls are given as the source filed them. No cut-off for these calls is given here.
# Key:
# Assay type in all cases: cell-based
# [1] = target: T1, Ecdysone receptor (Drosophila melanogaster, UniProt P20153+P34021); assay: (§1) Agonist activity at ecdysone receptor in Drosophila melanogaster S2 cells after 24 hr by luciferase reporter gene assay
# T1 sequence (P34021 whole entry): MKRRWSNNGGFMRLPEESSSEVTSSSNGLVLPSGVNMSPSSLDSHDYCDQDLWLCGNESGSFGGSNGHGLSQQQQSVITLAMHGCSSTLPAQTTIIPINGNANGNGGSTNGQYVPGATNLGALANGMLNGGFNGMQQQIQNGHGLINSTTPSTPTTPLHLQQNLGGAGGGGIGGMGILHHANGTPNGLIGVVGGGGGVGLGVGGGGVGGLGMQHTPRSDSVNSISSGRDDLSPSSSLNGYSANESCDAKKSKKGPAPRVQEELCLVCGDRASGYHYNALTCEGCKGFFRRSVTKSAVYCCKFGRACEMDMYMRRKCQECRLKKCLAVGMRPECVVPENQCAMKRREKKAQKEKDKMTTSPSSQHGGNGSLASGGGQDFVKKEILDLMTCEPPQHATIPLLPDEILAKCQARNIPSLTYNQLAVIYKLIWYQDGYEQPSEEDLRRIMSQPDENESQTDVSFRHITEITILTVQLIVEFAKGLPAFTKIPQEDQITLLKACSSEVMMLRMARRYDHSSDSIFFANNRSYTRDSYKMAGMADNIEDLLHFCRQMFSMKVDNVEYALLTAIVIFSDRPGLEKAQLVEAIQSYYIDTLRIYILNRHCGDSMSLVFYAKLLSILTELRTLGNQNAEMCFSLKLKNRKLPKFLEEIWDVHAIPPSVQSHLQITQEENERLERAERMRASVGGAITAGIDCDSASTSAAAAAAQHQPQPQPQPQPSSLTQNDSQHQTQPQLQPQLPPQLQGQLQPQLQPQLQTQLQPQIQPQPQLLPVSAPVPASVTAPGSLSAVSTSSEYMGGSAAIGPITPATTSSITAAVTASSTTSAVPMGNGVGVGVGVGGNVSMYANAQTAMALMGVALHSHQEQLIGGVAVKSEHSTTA
# T1 sequence (P20153 whole entry): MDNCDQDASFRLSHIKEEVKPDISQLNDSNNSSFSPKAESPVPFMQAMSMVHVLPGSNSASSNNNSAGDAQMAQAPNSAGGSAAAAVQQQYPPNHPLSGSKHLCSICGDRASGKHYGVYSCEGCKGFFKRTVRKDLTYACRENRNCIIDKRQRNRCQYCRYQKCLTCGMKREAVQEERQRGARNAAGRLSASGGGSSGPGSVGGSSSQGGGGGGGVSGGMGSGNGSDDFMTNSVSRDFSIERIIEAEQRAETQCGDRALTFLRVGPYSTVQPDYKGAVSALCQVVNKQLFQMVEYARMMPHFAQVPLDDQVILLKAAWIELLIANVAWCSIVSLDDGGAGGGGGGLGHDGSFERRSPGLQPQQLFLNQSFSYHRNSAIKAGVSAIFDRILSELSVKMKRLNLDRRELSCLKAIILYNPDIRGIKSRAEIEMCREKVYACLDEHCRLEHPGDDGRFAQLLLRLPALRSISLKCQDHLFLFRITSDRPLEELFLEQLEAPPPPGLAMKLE
# [2] = target: T2, Ecdysone receptor (Drosophila melanogaster) (UniProt P34021+P20153); assay: Agonist activity at ecdysone receptor in Drosophila melanogaster S2 cells at 100 uM after 24 hr by luciferase reporter gene assay relative to 20-hydroxyecdysone
# [3] = target: T3, Ecdysone receptor (Bombyx mori, UniProt P49881); assay: Agonist activity at ecdysone receptor in Bombyx mori Bm5 cells after 24 hr by luciferase reporter gene assay
# T3 sequence (P49881 whole entry): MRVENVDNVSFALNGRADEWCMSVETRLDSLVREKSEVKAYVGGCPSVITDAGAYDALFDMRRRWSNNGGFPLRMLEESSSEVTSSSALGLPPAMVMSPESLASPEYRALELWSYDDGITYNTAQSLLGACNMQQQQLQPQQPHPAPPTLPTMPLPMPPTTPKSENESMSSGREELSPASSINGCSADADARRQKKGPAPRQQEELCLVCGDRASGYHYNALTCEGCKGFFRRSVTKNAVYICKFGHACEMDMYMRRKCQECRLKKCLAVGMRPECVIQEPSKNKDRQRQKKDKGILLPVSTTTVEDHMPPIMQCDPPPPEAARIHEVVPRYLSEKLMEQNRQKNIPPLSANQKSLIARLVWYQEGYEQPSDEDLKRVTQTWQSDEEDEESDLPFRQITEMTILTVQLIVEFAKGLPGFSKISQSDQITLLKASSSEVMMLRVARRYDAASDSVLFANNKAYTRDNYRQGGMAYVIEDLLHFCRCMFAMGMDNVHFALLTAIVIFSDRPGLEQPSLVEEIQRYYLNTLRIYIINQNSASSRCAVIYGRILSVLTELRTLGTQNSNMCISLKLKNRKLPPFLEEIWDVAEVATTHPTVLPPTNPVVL
# [4] = target: T2, Ecdysone receptor (Drosophila melanogaster); assay: as §1
Structure (SMILES),EC50 [1],Efficacy [2],EC50 [3],pEC50 [4]
CC(C)(C)N(NC(=O)c1ccccc1F)C(=O)c1ccccc1Cl,33.9 µM,73%,0.0513 µM,
CC(C)(C)N(NC(=O)c1ccc(Cl)cc1)C(=O)c1ccccc1Cl,81.3 µM,52%,0.115 µM,
COc1cccc(C(=O)NN(C(=O)c2ccccc2Cl)C(C)(C)C)c1,72.4 µM,58%,0.0525 µM,
CC(C)(C)N(NC(=O)c1ccc(F)cc1)C(=O)c1ccccc1Cl,37.2 µM,62%,0.389 µM,
CCC(CC)(NC(=O)c1ccc2c(c1C)CCCO2)C(=O)c1cc(C)cc(C)c1,,,,inactive
CC(C)(C)N(NC(=O)c1cccc(Cl)c1Cl)C(=O)c1ccccc1Cl,7.76 µM,74%,0.00933 µM,
CC(C)(C)N(Cc1ccccc1)NC(=O)c1ccccc1,> 100 µM,1%,,
Cc1ccc(C(=O)NN(C(=O)c2ccccc2Cl)C(C)(C)C)cc1C,66.1 µM,60%,0.0871 µM,
O=C(NN(C(=O)c1ccccc1)c1ccccc1)c1ccccc1,> 100 µM,6%,25.7 µM,
CN(C(=O)c1ccccc1)N(C)C(=O)c1ccccc1,,,> 100 µM,inactive
Cc1ccc(C)c(C(=O)NN(C(=O)c2ccccc2Cl)C(C)(C)C)c1,107 µM,46%,1.62 µM,
Cc1cccc(C(=O)NN(C(=O)c2ccccc2Cl)C(C)(C)C)c1,107 µM,48%,0.603 µM,
CCc1ccc(C(=O)NN(C(=O)C2CCCCC2)C(C)(C)C)cc1,,,9.33 µM,inactive
CCc1ccc(C(=O)NN(C(=O)CCC(C)C)C(C)(C)C)cc1,,,0.832 µM,inactive
Cc1cc(C)cc(C(=O)C2(NC(=O)C(F)(F)F)CCCCC2)c1,,,,inactive
CCCCCC(=O)N(NC(=O)c1ccc(CC)cc1)C(C)(C)C,,,2.82 µM,inactive
CCCCCCC(=O)NN(C(=O)c1ccccc1Cl)C(C)(C)C,> 100 µM,10%,0.741 µM,
CC(C)c1ccc(C(=O)NN(C(=O)c2ccccc2Cl)C(C)(C)C)cc1,12 µM,88%,0.0245 µM,
Cc1cccc(C(=O)NN(C(=O)c2ccccc2Cl)C(C)(C)C)c1C,11.5 µM,76%,0.02 µM,
CCc1ccc(C(=O)NN(C(=O)C2CC=CCC2)C(C)(C)C)cc1 (configuration not stated),> 100 µM,1%,1 µM,
CCOc1cccc(C(=O)NN(C(=O)c2cc(C)cc(C)c2)C(C)(C)C)c1C,12 µM,71%,0.0525 µM,
Cc1cc(C)cc(C(=O)NN(C(=O)CCCC(C)C)C(C)(C)C)c1,,,> 100 µM,inactive
CCc1ccc(C(=O)NN(C(=O)c2ccccc2)C(C)(C)C)cc1,5.5 µM,52%,0.0049 µM,
CC(C)(C)N(NC(=O)c1ccccc1Br)C(=O)c1ccccc1Cl,60.3 µM,59%,0.316 µM,
CC(C)(C)N(NC(=O)c1ccccc1I)C(=O)c1ccccc1Cl,87.1 µM,54%,1.29 µM,
CN(NC(=O)c1ccccc1)C(=O)c1ccccc1,,,> 100 µM,inactive
Cc1ccccc1C(=O)NN(C(=O)c1ccccc1Cl)C(C)(C)C,25.7 µM,83%,0.0724 µM,

Structure (SMILES),EC50 [1],Efficacy [2],EC50 [3],pEC50 [4]
CCCCC(=O)NN(C(=O)c1cc(C)cc(C)c1)C(C)(C)C,,,1.86 µM,inactive
COc1cccc(C(=O)NN(C(=O)c2ccccc2Cl)C(C)(C)C)c1C,16.6 µM,77%,0.0155 µM,
CCCCCCC(=O)N(NC(=O)c1ccc(CC)cc1)C(C)(C)C,,,11.7 µM,inactive
Cc1cc(C)cc(C(=O)N(NC(=O)c2ccccc2)C(C)(C)C)c1,66.1 µM,57%,0.0692 µM,
O=C(NN(C(=O)c1ccccc1)C1CCCCC1)c1ccccc1,> 100 µM,18%,0.891 µM,
CC(C)(C)N(NC(=O)c1ccccc1)C(=O)c1ccc(Cl)cc1Cl,148 µM,40%,0.117 µM,
CCCCCCCCCC(=O)NN(C(=O)c1cc(C)cc(C)c1)C(C)(C)C,,,1.55 µM,inactive
CC(C)(C)N(NC(=O)c1cccc(F)c1)C(=O)c1ccccc1Cl,25.7 µM,76%,0.0692 µM,
CCc1ccc(C(=O)NC(CC)(CC)C(=O)c2cc(C)cc(C)c2)cc1,,,,inactive
CCCCCC(=O)NN(C(=O)c1cc(C)cc(C)c1)C(C)(C)C,> 100 µM,36%,0.0794 µM,
Cc1cc(C)c(Cl)c(C(=O)N(NC(=O)c2ccccc2)C(C)(C)C)c1,> 100 µM,2%,,
CCc1ccc(C(=O)NN(C(=O)c2cccc3ccccc23)C(C)(C)C)cc1,10.5 µM,53%,0.0132 µM,
CC(C)(C)N(NC(=O)c1ccc(C#N)cc1)C(=O)c1ccccc1Cl,93.3 µM,52%,0.603 µM,
CCCCN(C(=O)c1ccccc1)N(C(=O)c1ccccc1)C(C)(C)C,,,> 100 µM,inactive
Cc1cc(C)cc(C(=O)NN(C(=O)CCC(C)C)C(C)(C)C)c1,,,14.5 µM,inactive
COc1cccc(C(=O)NN(C(=O)c2cc(C)cc(C)c2)C(C)(C)C)c1,45.7 µM,60%,0.0661 µM,
CC(C)CN(NC(=O)c1ccccc1)C(=O)c1ccccc1,> 100 µM,33%,2.88 µM,
COc1ccc(C(=O)NN(C(=O)c2ccccc2Cl)C(C)(C)C)cc1,11.2 µM,112%,0.0513 µM,
CCCCN(NC(=O)c1ccccc1)C(=O)c1ccccc1,> 100 µM,4%,7.08 µM,
CCCCCC(=O)N(NC(=O)c1cc(C)cc(C)c1)C(C)(C)C,,,8.71 µM,inactive
CCc1ccc(C(=O)NC(C(=O)c2cc(C)cc(C)c2)C(C)(C)C)cc1 (racemic),,,,inactive
CC(C)(C)N(NC(=O)c1cccc(C#N)c1)C(=O)c1ccccc1Cl,36.3 µM,67%,0.955 µM,
O=C(NN(CC1CCCCC1)C(=O)c1ccccc1)c1ccccc1,> 100 µM,1%,1.7 µM,
CCc1ccccc1C(=O)N(NC(=O)c1ccccc1)C(C)(C)C,97.7 µM,50%,0.589 µM,
Cc1cc(C)cc(C(=O)N(NC(=O)CCC(C)C)C(C)(C)C)c1,> 100 µM,35%,0.0912 µM,
CC(C)(C)N(NC(=O)c1cccc(Br)c1)C(=O)c1ccccc1Cl,13.2 µM,80%,0.191 µM,
